Target: Menin-MLL (Homo sapiens (Human), UniProt O00255)
Assay: Determination of binding constants (Ki) to Menin-MLL (HTRF)
Conditions: HTRF, 0.25 nM H-FL-Menin, 3.2 nM FITC-MLL-4-43, 24 hr incubation; for Ki: read-out: Menin-MLL Ki HTRF Assay: Ki

Menin-MLL, sequence (O00255 whole entry): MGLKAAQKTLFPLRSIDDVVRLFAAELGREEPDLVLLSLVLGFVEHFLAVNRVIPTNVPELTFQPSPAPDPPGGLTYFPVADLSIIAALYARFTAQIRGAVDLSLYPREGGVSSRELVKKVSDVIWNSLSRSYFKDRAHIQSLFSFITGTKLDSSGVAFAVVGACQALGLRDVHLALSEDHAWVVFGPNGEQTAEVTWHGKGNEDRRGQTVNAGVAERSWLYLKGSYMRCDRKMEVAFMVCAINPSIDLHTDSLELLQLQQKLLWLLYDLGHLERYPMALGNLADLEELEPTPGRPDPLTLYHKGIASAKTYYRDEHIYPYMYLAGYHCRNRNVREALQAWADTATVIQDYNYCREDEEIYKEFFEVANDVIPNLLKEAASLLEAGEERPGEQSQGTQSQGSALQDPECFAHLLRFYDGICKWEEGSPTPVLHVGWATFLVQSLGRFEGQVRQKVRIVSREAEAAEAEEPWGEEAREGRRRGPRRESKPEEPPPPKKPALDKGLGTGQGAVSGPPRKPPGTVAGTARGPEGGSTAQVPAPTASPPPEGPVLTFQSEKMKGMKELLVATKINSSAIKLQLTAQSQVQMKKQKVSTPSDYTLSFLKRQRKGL

Row | SMILES | Ki [nM] | EC50 [nM]
1 | CC(C)N(C(=O)c1cc(F)ccc1Oc1cncnc1N1CC2(CCN(C[C@@H]3CC[C@@H](NS(=N)(=O)c4ccccc4)CO3)CC2)C1)C(C)C (mixture of isomers) [Compound 228, 5-Fluoro-N,N-diisopropyl-2-((4-(7-(((2S,5R)-5-(phenylsulfonoamidimidamido)tetrahydro-2H-pyran-2-yl)methyl)-2,7-diazaspiro[3.5]nonan-2-yl)pyrimidin-5-yl)oxy)benzamide] | < 1 | 
2 | CC[S@@](=N)(=O)N[C@@H]1CC[C@@H](CN2CCC3(CC2)CN(c2ncncc2Oc2ccc(F)cc2C(=O)N(C(C)C)C(C)C)C3)OC1 (single isomer, unassigned) [Compound 226] | < 1 | 
3 | CC[S@](=N)(=O)N[C@@H]1CC[C@@H](CN2CCC3(CC2)CN(c2ncncc2Oc2ccc(F)cc2C(=O)N(C(C)C)C(C)C)C3)OC1 (single isomer, unassigned) [Compound 227] | < 1 | 
4 | CC(C)N(C(=O)c1cc(F)ccc1Oc1cncnc1N1CC2(CCN(C[C@@H]3CC[C@@H](N[S@@](=N)(=O)c4ccccc4)CO3)CC2)C1)C(C)C (single isomer, unassigned) [Compound 229] | < 1 | 
5 | CC(C)N(C(=O)c1cc(F)ccc1Oc1cncnc1N1CC2(CCN(C[C@@H]3CC[C@@H](N[S@](=N)(=O)c4ccccc4)CO3)CC2)C1)C(C)C (single isomer, unassigned) [Compound 230] | < 1 | 
6 | CCS(=O)(=O)N[C@@H]1CC[C@@H](CN2CCC3(CC2)CN(c2ncncc2Oc2ccc(F)cc2C(=O)N(C(C)C)[C@@H]2CC[C@H]2O)C3)OC1 (single isomer, unassigned) [Compound 256] | < 1 | < 50
7 | CCS(=O)(=O)N[C@@H]1CC[C@@H](CN2CCC3(CC2)CN(c2ncncc2Oc2ccc(F)cc2C(=O)N(C(C)C)[C@H]2CC[C@@H]2O)C3)OC1 (single isomer, unassigned) [Compound 257] | < 1 | < 50
8 | CCN(C(=O)c1cc(F)ccc1Oc1cncnc1N1CC2(CCN(C[C@H]3CC[C@H](NS(=O)(=O)CC)CO3)CC2)C1)C(C)C (stereo in doubt) [Compound 52, N-ethyl-2-((4-(7-(((2R,5S)-5-(ethylsulfonamido)tetrahydro-2H-pyran-2-yl)methyl)-2,7-diazaspiro[3.5]nonan-2-yl)pyrimidin-5-yl)oxy)-5-fluoro-N-isopropylbenzamide] |  | < 50
9 | CNS(=O)(=O)N[C@H]1CC[C@H](CN2CCC3(CC2)CN(c2ncncc2Oc2ccc(F)cc2C(=O)N(C(C)C)C2CC2)C3)OC1 (stereo in doubt) [Compound 146, N-Cyclopropyl-5-fluoro-N-isopropyl-2-((4-(7-(((2R,5S)-5-((N-methylsulfamoyl)amino)tetrahydro-2H-pyran-2-yl)methyl)-2,7-diazaspiro[3.5]nonan-2-yl)pyrimidin-5-yl)oxy)benzamide] | < 1 | 
10 | CC(C)N(CC(F)(F)F)C(=O)c1cc(F)ccc1Oc1nncnc1N1CC2(CCN(C[C@H]3CC[C@H](NS(=O)(=O)N4CCC4)CO3)CC2)C1 (stereo in doubt) [Compound 194, 2-((5-(7-(((2R,5S)-5-(Azetidine-1-sulfonamido)tetrahydro-2H-pyran-2-yl)methyl)-2,7-diazaspiro[3.5]nonan-2-yl)-1,2,4-triazin-6-yl)oxy)-5-fluoro-N-isopropyl-N-(2,2,2-trifluoroethyl)benzamide] | < 1 | 
11 | CCN(C(=O)c1cc(F)ccc1Oc1cncnc1N1CC2(CCN(C[C@@H]3CC[C@@H](NS(=O)(=O)C(C)C)CO3)CC2)C1)C(C)C [Compound 3, N-ethyl-5-fluoro-N-isopropyl-2-((4-(7-(((2S,5R)-5-((1-methylethyl)sulfonamido)tetrahydro-2H-pyran-2-yl)methyl)-2,7-diazaspiro[3.5]nonan-2-yl)pyrimidin-5-yl)oxy)benzamide] | < 1 | < 50
12 | CCN(C(=O)c1cc(F)ccc1Oc1cncnc1N1CC2(CCN(C[C@@H]3CC[C@@H](NS(=O)(=O)C4COC4)CO3)CC2)C1)C(C)C [Compound 5, N-ethyl-5-fluoro-N-isopropyl-2-((4-(7-(((2S,5R)-5-(oxetane-3-sulfonamido)tetrahydro-2H-pyran-2-yl)methyl)-2,7-diazaspiro[3.5]nonan-2-yl)pyrimidin-5-yl)oxy)benzamide] | < 1 | < 50
13 | CCN(C(=O)c1cc(F)ccc1Oc1cncnc1N1CC2(CCN(C[C@@H]3CC[C@@H](NS(=O)(=O)CC4CC4)CO3)CC2)C1)C(C)C [Compound 7, 2-((4-(7-(((2S,5R)-5-((cyclopropylmethyl)sulfonamido)tetrahydro-2H-pyran-2-yl)methyl)-2,7-diazaspiro[3.5]nonan-2-yl)pyrimidin-5-yl)oxy)-N-ethyl-5-fluoro-N-isopropylbenzamide] | < 1 | < 50
14 | CCN(C(=O)c1cc(F)ccc1Oc1cncnc1N1CC2(CCN(C[C@@H]3CC[C@@H](NS(=O)(=O)CCOC)CO3)CC2)C1)C(C)C [Compound 8, N-ethyl-5-fluoro-N-isopropyl-2-((4-(7-(((2S,5R)-5-((2-methoxyethyl)sulfonamido)tetrahydro-2H-pyran-2-yl)methyl)-2,7-diazaspiro[3.5]nonan-2-yl)pyrimidin-5-yl)oxy)benzamide] | < 1 | < 50
15 | CCCS(=O)(=O)N[C@@H]1CC[C@@H](CN2CCC3(CC2)CN(c2ncncc2Oc2ccc(F)cc2C(=O)N(CC)C(C)C)C3)OC1 [Compound 9, N-ethyl-5-fluoro-N-isopropyl-2-((4-(7-(((2S,5R)-5-(propylsulfonamido)tetrahydro-2H-pyran-2-yl)methyl)-2,7-diazaspiro[3.5]nonan-2-yl)pyrimidin-5-yl)oxy)benzamide] | < 1 | < 50
16 | CCN(C(=O)c1cc(F)ccc1Oc1cncnc1N1CC2(CCN(C[C@@H]3CC[C@@H](NS(=O)(=O)C4CCOC4)CO3)CC2)C1)C(C)C (stereo partly drawn) [Compound 10, N-ethyl-5-fluoro-N-isopropyl-2-((4-(7-(((2S,5R)-5-((tetrahydrofuran)-3-sulfonamido)tetrahydro-2H-pyran-2-yl)methyl)-2,7-diazaspiro[3.5]nonan-2-yl)pyrimidin-5-yl)oxy)benzamide] | < 1 | < 50
17 | CC(C)N(C(=O)c1cc(F)ccc1Oc1cncnc1N1CC2(CCN(C[C@@H]3CC[C@@H](NC(=O)OC(C)(C)C)CO3)CC2)C1)C1CC1 [Compound 17, tert-butyl ((3R,6S)-6-((2-(5-(2-(cyclopropyl(isopropyl)carbamoyl)-4-fluorophenoxy)pyrimidin-4-yl)-2,7-diazaspiro[3.5]nonan-7-yl)methyl)tetrahydro-2H-pyran-3-yl)carbamate] | < 1 | < 50
18 | CC(C)N(C(=O)c1cc(F)ccc1Oc1cncnc1N1CC2(CCN(C[C@@H]3CC[C@@H](NS(C)(=O)=O)CO3)CC2)C1)C1CC1 [Compound 18, N-cyclopropyl-5-fluoro-N-isopropyl-2-((4-(7-(((2S,5R)-5-(methylsulfonamido)tetrahydro-2H-pyran-2-yl)methyl)-2,7-diazaspiro[3.5]nonan-2-yl)pyrimidin-5-yl)oxy)benzamide] | < 1 | < 50
19 | CC(C)N(C(=O)c1cc(F)ccc1Oc1cncnc1N1CC2(CCN(C[C@@H]3CC[C@@H](NS(=O)(=O)C(C)C)CO3)CC2)C1)C1CC1 [Compound 20, N-cyclopropyl-5-fluoro-N-isopropyl-2-((4-(7-(((2S,5R)-5-((1-methylethyl)sulfonamido)tetrahydro-2H-pyran-2-yl)methyl)-2,7-diazaspiro[3.5]nonan-2-yl)pyrimidin-5-yl)oxy)benzamide] | < 1 | < 50
20 | CC(C)N(C(=O)c1cc(F)ccc1Oc1cncnc1N1CC2(CCN(C[C@@H]3CC[C@@H](NS(=O)(=O)C4COC4)CO3)CC2)C1)C1CC1 [Compound 22, N-cyclopropyl-5-fluoro-N-isopropyl-2-((4-(7-(((2S,5R)-5-(oxetane-3-sulfonamido)tetrahydro-2H-pyran-2-yl)methyl)-2,7-diazaspiro[3.5]nonan-2-yl)pyrimidin-5-yl)oxy)benzamide] | < 1 | < 50
21 | C[C@@H]1COC[C@H](C)N1C(=O)c1cc(F)ccc1Oc1cncnc1N1CC2(CCN(C[C@@H]3CC[C@@H](NS(C)(=O)=O)CO3)CC2)C1 [Compound 23, N-((3R,6S)-6-((2-(5-(2-((3S,5R)-3,5-dimethylmorpholine-4-carbonyl)-4-fluorophenoxy)pyrimidin-4-yl)-2,7-diazaspiro[3.5]nonan-7-yl)methyl)tetrahydro-2H-pyran-3-yl)methanesulfonamide] | < 1 | < 50
22 | CCS(=O)(=O)N[C@@H]1CC[C@@H](CN2CCC3(CC2)CN(c2ncncc2Oc2ccc(F)cc2C(=O)N2[C@H](C)COC[C@@H]2C)C3)OC1 [Compound 24, N-((3R,6S)-6-((2-(5-(2-((3S,5R)-3,5-dimethylmorpholine-4-carbonyl)-4-fluorophenoxy)pyrimidin-4-yl)-2,7-diazaspiro[3.5]nonan-7-yl)methyl)tetrahydro-2H-pyran-3-yl)ethanesulfonamide] | < 1 | < 50
23 | CC(C)S(=O)(=O)N[C@@H]1CC[C@@H](CN2CCC3(CC2)CN(c2ncncc2Oc2ccc(F)cc2C(=O)N2[C@H](C)COC[C@@H]2C)C3)OC1 [Compound 25, N-((3R,6S)-6-((2-(5-(2-((3S,5R)-3,5-dimethylmorpholine-4-carbonyl)-4-fluorophenoxy)pyrimidin-4-yl)-2,7-diazaspiro[3.5]nonan-7-yl)methyl)tetrahydro-2H-pyran-3-yl)propane-2-sulfonamide] | < 1 | < 50
24 | C[C@@H]1COC[C@H](C)N1C(=O)c1cc(F)ccc1Oc1cncnc1N1CC2(CCN(C[C@@H]3CC[C@@H](NS(=O)(=O)C4CC4)CO3)CC2)C1 [Compound 26, N-((3R,6S)-6-((2-(5-(2-((3S,5R)-3,5-dimethylmorpholine-4-carbonyl)-4-fluorophenoxy)pyrimidin-4-yl)-2,7-diazaspiro[3.5]nonan-7-yl)methyl)tetrahydro-2H-pyran-3-yl)cyclopropanesulfonamide] | < 1 | < 50
